In ChEMBL document CHEMBL2417540, “Medicinal chemistry of nicotinamide phosphoribosyltransferase (NAMPT) inhibitors” (J Med Chem, 2013):

Columns and labels:
[1] = tested on: HCT-116; test: Cytotoxicity against human HCT116 cells; assay type: functional, cell-based
[2] = tested on: A2780; test: Cytotoxicity against human A2780 cells; assay type: functional, cell-based
[3] = biological target: T1, Nicotinamide phosphoribosyltransferase (Homo sapiens, UniProt P43490); test: Inhibition of NAMPT (unknown origin)
T1 sequence (P43490 whole entry): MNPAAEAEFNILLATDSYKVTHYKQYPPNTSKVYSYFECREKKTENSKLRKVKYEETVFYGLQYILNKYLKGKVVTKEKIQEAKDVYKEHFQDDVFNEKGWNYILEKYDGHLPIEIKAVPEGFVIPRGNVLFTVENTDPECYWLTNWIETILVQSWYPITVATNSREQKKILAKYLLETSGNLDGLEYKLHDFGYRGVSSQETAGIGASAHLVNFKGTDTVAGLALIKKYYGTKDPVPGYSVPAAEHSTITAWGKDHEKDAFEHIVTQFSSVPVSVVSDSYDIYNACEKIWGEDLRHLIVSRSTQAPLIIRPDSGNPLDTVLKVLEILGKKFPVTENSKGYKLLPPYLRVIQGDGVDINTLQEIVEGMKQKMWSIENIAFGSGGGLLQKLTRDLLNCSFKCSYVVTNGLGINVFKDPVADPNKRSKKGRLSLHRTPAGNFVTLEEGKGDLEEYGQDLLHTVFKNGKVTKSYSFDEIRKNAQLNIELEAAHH

[4] = tested on: A2780; test: Cytotoxicity against human A2780 cells after 72 hrs by SRB assay; assay type: functional, cell-based; conditions: A2780, 72 h
[5] = biological target: T1, Nicotinamide phosphoribosyltransferase; test: Inhibition of recombinant his-tagged NAMPT (unknown origin) expressed in Escherichia coli after 30 mins
[6] = Cytotoxicity against human U87 cells by MTT assay; assay type: functional, cell-based, U-87MG ATCC; conditions: U-87 MG
[7] = biological target: T1, Nicotinamide phosphoribosyltransferase; test: Inhibition of NAMPT in human U87 cells; assay type: cell-based, U-87MG ATCC
[8] = tested on: A2780; test: Cytotoxicity against human A2780 cells after 72 hrs by WST-1 assay; assay type: functional, cell-based; conditions: A2780, 72 h
[9] = Cytotoxicity against human NYH cells after 3 weeks by clonogenic survival assay; assay type: functional; conditions: 504 h, read-out: LD50 (the source's name)
[10] = tested on: WIL2; test: Cytotoxicity against human W1L2 cells; assay type: functional, cell-based
[11] = biological target: T1, Nicotinamide phosphoribosyltransferase; test: Binding affinity to NAMPT (unknown origin)
[12] = Cytotoxicity against human SH-SY5Y cells […] after 48 hrs by MTT assay; assay type: functional, cell-based
[13] = Half life in human; assay type: ADME, organism-based; conditions: in vivo
[14] = tested on: K562; test: Cytotoxicity against human K562 cells after 96 hrs by MTT assay; assay type: functional, cell-based; conditions: K562, 96 h
[15] = Solubility of the compound in water; assay type: physicochemical

With `C#CCN(Cc1cc2c(=O)n(C)c(CN3CCN(CCCN)CC3)nc2cc1Cl)c1ccc(C(=O)NCc2cccnc2)cc1` the EC50 [1] was 18 nM.
`CC(C)=CCN(Cc1cc2c(=O)n(C)nnc2cc1Cl)c1ccc(C(=O)NCc2cccnc2)cc1` showed an EC50 [1] of 3 nM.
For `O=C(NCc1cccnc1)Nc1ccc(S(=O)(=O)c2ccccc2OC(F)(F)F)cc1`, the EC50 [2] was 7 nM and the IC50 [3] was 1.2 nM.
For `N#C/N=C(\NCc1ccc(S(=O)(=O)c2cccc(Cl)c2)cc1)Nc1ccncc1`, the EC50 [4] was 4.1 nM.
In the case of `O=C(/C=C/c1cccnc1)Nc1ccc(S(=O)(=O)c2ccccc2)cc1`, the EC50 [4] is reported as 243 nM and the IC50 [5] is reported as 3 nM.
`O=C1c2cc(S(=O)(=O)O)ccc2-c2ccc(S(=O)(=O)O)cc21` gave an EC50 [6] of 335 µM.
Compound `Nc1c(-c2ccc3ccccc3n2)c2ccc([N+](=O)[O-])cc2c(=O)n1Cc1ccccc1` has an IC50 [7] of less than 5 µM and an EC50 [6] of 325 µM.
Work on `O=c1c(NCCCCCCS(=O)(=O)N(OCCN2CCOCC2)C2CCCCC2)c(Nc2ccncc2)c1=O` yielded an IC50 [8] of 0.03 nM.
Compound `O=C(/C=C/c1cccnc1)NCCCCCCS(=O)(=O)N(CCN1CCOCC1)OCC1CCCCC1` has an IC50 [2] of 0.16 nM.
`N#C/N=C(\NCCCCCCC(=O)N(Cc1ccccc1)OC1CCCCC1)Nc1ccncc1` gave a CC50 [9] of 0.02 nM.
Compound `C#CCN(Cc1cc2c(=O)n(C)c(CN3CCN(C)CC3)nc2cc1Br)c1ccc(C(=O)NCc2cccnc2)cc1` has an IC50 [3] of 0.23 nM and an EC50 [10] of 0.49 nM.
Work on `O=C(/C=C/c1ccc[n+]([C@@H]2O[C@H](CO)[C@@H](O)[C@H]2O)c1)NCCCCC1CCN(C(=O)c2ccccc2)CC1` yielded a Kd [11] of 45 µM.
For `Cc1ncsc1C(=O)N1CCC(CCCCNC(=O)c2cc3cnccc3[nH]2)CC1`, the EC50 [4] was 1 nM.
`O=C(NCCCCC1CCN(C(=O)c2ccccc2)CC1)c1cc2ccncc2s1` gave an EC50 [4] of 1.2 nM.
With `O=C(c1ccccc1)N1CCC(CCCCn2cc(/C=C/c3cccnc3)nn2)CC1` the IC50 [12] was 3000 nM.
Compound `O=C(NCCCCCCS(=O)(=O)N(OCCN1CCOCC1)C1CCCCC1)NCc1cccnc1` has an IC50 [2] of 0.89 nM.
For `N#CN=C(NCCCCCCOc1ccc(Cl)cc1)Nc1ccncc1` [CHS-828], the CC50 [9] was 1.7 nM and the half-life [13] was 180 min.
Work on `O=C(/C=C/c1cccnc1)NCCCCC1CCN(C(=O)c2ccccc2)CC1` [DAPORINAD] yielded a CC50 [9] of 1.5 nM and an IC50 [14] of 7.2 nM.
With `COCCOCCOCCOCCOC(=O)OC[n+]1ccc(N/C(=N/C#N)NCCCCCCOc2ccc(Cl)cc2)cc1.[Cl-]` [TEGLARINAD CHLORIDE] the solubility [15] was no more than 97 mg/mL.
